The values that follow come from patent US8648100B2, “Roflumilast for the treatment of pulmonary hypertension” (Takeda GmbH, priority 2005, dated 2014).

Common to all, as to assay type: in vivo, adult male Wistar rats
For series [1], the system named is chronic hypoxia-induced pulmonary arterial hypertension in rats. As to conditions: for PAP: mean ± SEM; for RV/LV + S: right ventricular hypertrophy index; for Muscularization: distal pulmonary arteries. How it is done: (§1) The objective of the pharmacological investigation was to characterize the effect of orally administered Roflumilast at 0.5 mg kg^−1 d^−1 and 1.5 mg kg^−1 d^−1 on the increase in mean PAP and RV/LV+S ratio as well as distal arteriolar muscularization triggered by chronic hypoxia or monocrotalin (MCT) in rats. Hypoxia- or MCT-induced pulmonary hypertension in rats represent widely accepted animal models to study the potential of investigative drugs to reverse chronic pulmonary hypertension based on pulmonary vascular remodelling. In the MCT setting Roflumilast was administered both in preventive and curative paradigms.
(§2) Experiments were performed with adult male Wistar rats (200-250 g) according to institutional guidelines abiding to national and international regulations.
Rats were exposed to chronic hypoxia (10% O2) in a ventilated chamber (500-liter volume, Flufrance, Cachan, France). To establish the hypoxic environment, the chamber was flushed with a mixture of room air and nitrogen, and the gas was recirculated. The environment within the chamber was monitored using an oxygen analyzer (Oxiquant M, EnviTeC—Wismar, Germany). Carbon dioxide was removed by self-indicating soda lime granules. Excess humidity was prevented by cooling of the recirculation circuit. The chamber temperature was maintained at 22-24° C. The chamber was opened every other day for 1 hour to clean the cages and replenish food and water supplies. Normoxic control rats were kept in the same room with identical light-dark cycle. Rats exposed to chronic hypoxia were randomly assigned to three groups (8-10 animals per group): the first group received Roflumilast at 0.5 mg kg^−1 d^−1, the second group received Roflumilast at 1.5 mg kg^−1 d^−1, the third group received vehicle (methocel). A group not exposed to hypoxia served as control. Roflumilast or vehicle were administered once daily by gavage over 15 days of exposure to hypoxia.
(§3) At the end of the treatment period rats were anaethesized with sodium pentobarbital (60 mg/kg, i.p.). A polyvinyl catheter was introduced into the right jugular vein and pushed through the right ventricle into the pulmonary artery. Another polyethylene catheter was inserted into the right carotid artery. After measurement of pulmonary (PAP) and systemic arterial pressures (SAP), the thorax was opened and the left lung immediately removed and frozen in liquid nitrogen. The heart was dissected and weighed for calculation of the right ventricular hypertrophy index (ratio of right ventricular free wall weight over sum of septum plus left ventricular free wall weight; RV/LV+S). The right lung was fixed in the distended state with formalin buffer. After routine processing and paraffin embedding, multiple sections from each lobe were stained with haemotoxylin and eosin. In each rat, 60 intraacinar arteries were analyzed and categorized as muscular (fully or partially) or nonmuscular to assess the degree of muscularization. In addition, intraacinar fully muscularized arteries were evaluated for measurements of medial wall thickness which was calculated and expressed as follows: index (%)=(External diameter−internal diameter)/External diameter×100%.
(§4) The data are expressed as means±SEM. A nonparametric Mann-Whitney test was used for comparisons between two groups. Comparisons of data at various times after MCT injection or of various treatment groups were performed using a nonparametric Kruskal-Wallis test followed by Dunn's test when significant. To compare the degree of pulmonary vessels muscularization between groups, we used a non parametric Mann-Whitney or a Kruskal-Wallis test after ordinal classification of the vessels as non muscular, partially muscular, or fully muscular.

In series [2] the test system is monocrotaline (MCT)-induced pulmonary arterial hypertension in rats (curative approach). Put plainly: Monocrotaline (MCT)-induced pulmonary hypertension in rats, curative approach (treatment day 21 to day 42). How it is done:
(§5) Rats were randomly assigned to three groups (8-10 animals in each group): two groups received Roflumilast 0.5 and 1.5 mg kg^−1 d^−1, respectively; and one group received vehicle. In the preventive treatment paradigm Roflumilast or vehicle were given once daily by gavage for 21 days starting immediately after a single subcutaneous injection of MCT (60 mg kg^−1). A group not receiving MCT served as control. In a curative approach rats were left untreated for 21 days following MCT (60 mg/kg s.c.) and than randomly divided into two groups, one received roflumilast (1.5 mg/kg/d) p.o. and the other vehicle, from day 21 to day 42.
as §3, §4
In a curative approach Roflumilast (1.5 mg/kg/d) p.o. or vehicle were administered beginning at day 21 following MCT i.e. when pulmonary vascular remodeling and consequently augmented PAP and right ventricular hypertrophy were manifest. After another 3 weeks (i.e. at day 42) PAP was measured and rats were sacrificed to assess RV/LV+S ratio and muscularization of distal pulmonary arteries.

Series [3] has as its system monocrotaline (MCT)-induced pulmonary arterial hypertension in rats. In words: Monocrotaline (MCT)-induced pulmonary hypertension in rats, preventive treatment paradigm. As to conditions: for PAP: mean ± SEM; for Muscularization: distal pulmonary arteries; for RV/LV + S: right ventricular hypertrophy index. How it is done:
as §1, §2, §5, §3, §4

[4] abbreviates: Hypoxia 15 days + 0.5 mg/kg Roflumilast once daily by gavage.
Where [5] appears, read: Hypoxia 15 days + 1.5 mg/kg Roflumilast once daily by gavage.
Where [6] appears, read: Day 42, Roflumilast 1.5 mg/kg/d p.o. starting day 21 after MCT.
[7] abbreviates: MCT + 0.5 mg/kg Roflumilast for 21 days.
[8] abbreviates: MCT + 1.5 mg/kg Roflumilast for 21 days.
Where [9] appears, read: conclusion for pulmonary hypertension triggered by hypoxia or monocrotaline in rats.

Like-named read-outs stand apart in the source and are kept apart here. A value given as a limit tells only on which side of the number the result lay.

For the molecule `O=C(Nc1c(Cl)cncc1Cl)c1ccc(OC(F)F)c(OCC2CC2)c1` [Roflumilast, 3-cyclopropyl-methoxy-4-difluoromethoxy-N-(3,5-dichloropyrid-4-yl)benzamide], the PAP is on record as 28 ± 1.8 mm Hg in series [1] (setting [4]); 25.5 ± 1.8 mm Hg in series [1] (setting [5]); 23.6 ± 0.7 mmHg in series [2] (setting [6]); 29.3 ± 1.3 mm Hg in series [3] (MCT 60 mg/kg s.c. + 0.5 mg/kg Roflumilast once daily by gavage for 21 days); 21.4 ± 2.0 mm Hg in series [3] (MCT 60 mg/kg s.c. + 1.5 mg/kg Roflumilast once daily by gavage for 21 days). Besides, the “RV/LV + S” value in series [1] (setting [4]) is 37.8 ± 2.3%; in series [1] (setting [5]) it was 30.5 ± 0.8%; in series [2] (setting [6]), 33.8 ± 0.9%; in series [3] (setting [7]) it was 38.9 ± 1.6%; in series [3] (setting [8]), 31.3 ± 1.8%. Further, the Muscularization amounted to 31.8 ± 2% in series [1] (Hypoxia 15 days + 0.5 mg/kg Roflumilast); 18.5 ± 2% in series [1] (Hypoxia 15 days + 1.5 mg/kg Roflumilast); 36.4 ± 2.4% in series [2] (Day 42, Roflumilast 1.5 mg/kg/d p.o. starting day 21 after MCT, distal pulmonary arteries); 62.7 ± 5.4% in series [3] (setting [7]); 30.3 ± 8.2% in series [3] (setting [8]). Moreover, in series [2] (Roflumilast 1.5 mg/kg/d from day 21, 17 of 24 rats, vehicle 54%), the “survival rate (animals alive at day 42)” value amounted to 71%. Further, the “reduction of the proportion of fully muscularized arterioles” value in series [2] (at day 42, Roflumilast 1.5 mg/kg/d from day 21) is above 50%. Also, the “Medial wall thickness index of the fully muscularized pulmonary arterioles” value in series [2] (at day 42, Roflumilast 1.5 mg/kg/d from day 21, vehicle 52±4%) turned out to be 18±2%. Also, the “ratio of completely obliterated arterioles” value in series [2] (at day 42, Roflumilast 1.5 mg/kg/d from day 21, vehicle 66±3%) is reported as 30±5%. In series [3] (setting [9]), the heart rate result was “unaffected”. For the same molecule, the systemic arterial pressure result in series [3] (setting [9]) was “unaffected”.
